The source of these data is PMC3832641, “Inhibition of Leishmania (Leishmania) amazonensis and Rat Arginases by Green Tea EGCG, (+)-Catechin and (−)-Epicatechin: A Comparative Structural Analysis of Enzyme-Inhibitor Interactions” (PLoS ONE, 2013).

The target of assay [1] is T1, recombinant arginase from Leishmania amazonensis (ARG-L) (Leishmania amazonensis, UniProt O96394). Kind of assay: biochemical.
Assay [2] has as its target T1, recombinant arginase from Leishmania amazonensis (ARG-L). Kind of assay: ARG-L enzyme kinetics: Ki, Ki' and mechanism of inhibition (Dixon and Cornish-Bowden plots). The class given is biochemical. As to conditions: for Ki': Cornish-Bowden plot, dissociation constant of enzyme-inhibitor-substrate complex; for Ki' / Ki: mean ± SEM; for Mode of inhibition: Dixon and Cornish-Bowden plots; for Ki: Dixon plot, dissociation constant of enzyme-inhibitor complex. How it is done: All reactions were performed in CHES buffer, 50 mM, pH 9.5, containing various concentrations of the substrate L-[…].5, 25, 50 and 100 mM) at pH 9.5. Inhibitors were used at three different concentrations similar to the IC50. The different substrate and inhibitor concentrations were obtained by serial dilution. A mixture, M1, containing L-arginine (pH 9.5) at double the desired concentration and a second mixture, M2, containing the enzyme (2000 units) diluted in 125 mM CHES buffer (pH 9.5) were prepared. The reaction mixture was obtained by homogenizing 50 μL of M1, 10 μL of inhibitor and adding 40 μL of M2. The addition of M2 was synchronized every 15 seconds, followed by immediate incubation in a water bath for 15 minutes at 37°C. The urea produced was analyzed as described above. […] Each constant was determined by calculating X values at the intersection points between two lines obtained by linear regression. […] Ki and Ki' is a positive value of the calculated X (Ki = -X). For three different values of S, three lines were drawn for 1/v against i (Dixon plot) and three lines for S/v against i (Cornish-Bowden plot). In the Dixon plot, the lines intersect at a point where i = -Ki and 1/v = [1- (Ki/Ki')]/Vmax; in the Cornish-Bowden plot, they intersect at a point where i = -Ki' and S/v = KM[1- (Ki'/Ki)]/Vmax. To make wizard Ki and Ki' calculations, linear data fitting was performed using Microsoft Office Excel v.2013. The linear equations were obtained by linear regression R^2>0.85. Linear regression retrieved the linear equation y(n) = […]), which calculates the reciprocal of the ratio of reaction 1/v (y(n)) as a function of variable inhibitor concentration (x(n)). The term b(n) is the reciprocal of the maximum ratio of reaction (1/Vmax) obtained at a fixed S concentration and variable i concentration. The Dixon and Cornish-Bowden plots were constructed using a mean of each point obtained from three independent experiments performed in duplicate. Three interception points were obtained by the combination of two linear equations for each time point. Then, Ki and Ki' were calculated using equation (7) and were expressed as mean values ± SEM (standard error of the mean).

Assay [3] has as its target T2, rat liver arginase (ARG-1) (Rattus norvegicus, UniProt P07824).
T2 construct: Rat liver arginase (ARG-1) was prepared by lysing 5 g of liver cells; from tissue; host or cells: rat liver
T2 sequence (P07824 1-323): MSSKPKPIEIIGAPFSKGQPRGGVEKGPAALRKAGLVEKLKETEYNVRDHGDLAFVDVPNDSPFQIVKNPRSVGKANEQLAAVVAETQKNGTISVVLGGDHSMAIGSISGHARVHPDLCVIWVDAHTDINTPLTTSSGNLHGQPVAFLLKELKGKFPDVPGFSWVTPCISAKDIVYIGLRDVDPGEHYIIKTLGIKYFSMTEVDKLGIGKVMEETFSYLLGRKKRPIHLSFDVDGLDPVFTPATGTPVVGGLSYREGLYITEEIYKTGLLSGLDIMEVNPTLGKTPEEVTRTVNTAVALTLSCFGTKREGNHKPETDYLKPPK
Nature of the assay: Inhibition of rat liver arginase (ARG-1). It is filed as biochemical. To be noted: for Inhibition of ARG-1: inhibitors at 10 µM or 100 µM; for inhibition at 1000 µM: inhibitors at 1000 µM.

For assay [4], the system named is L. (L.) donovani amastigotes. Also noted: method as in PMID 16569852. To be noted: cited from earlier work.
A further assay deals with L. (L.) amazonensis. Set-up: method as in PMID 22735546. As to conditions: cited from earlier work.

Turning to `O=C(OC1Cc2c(O)cc(O)cc2OC1c1cc(O)c(O)c(O)c1)c1cc(O)c(O)c(O)c1` (single isomer, unassigned; (-)) [EGCG, (−)-Epigallocatechin-3-gallate], the IC50 (commonly the concentration that inhibits the measured activity by half) in assay [1] is 3800 ± 100 nM. Besides, in assay [2], the “Ki'” value is 12.5 ± 0.4 µM; the Mode of inhibition entry is “mixed inhibitor”; the inhibition constant (Ki) – broadly, a measure of affinity in units of concentration, obtained from inhibition or displacement – is 4 ± 0.5 µM. In addition, in assay [3], the “Inhibition of ARG-1” value is reported as “did not significantly inhibit” and the inhibition (commonly the drop in the measured response relative to a control, in per cent) at 1000 µM amounted to 29%. Moreover, in assay [4], the “Leishmanicidal activity / effect on growth of the parasite” value (“Leishmanicidal activity / effect” for short) is recorded as “shows leishmanicidal activity”. Also, the “Effect on parasite mitochondria” value in the assay with L. (L.) amazonensis is reported as “damages mitochondria, contributing to the death of the parasite”.
As to `Oc1cc(O)c2c(c1)O[C@H](c1ccc(O)c(O)c1)[C@H](O)C2` [(−)-epicatechin], in assay [3], the “Inhibition of ARG-1” value is listed as “did not significantly inhibit” and the inhibition at 1000 µM turned out to be 22%. The “Leishmanicidal activity / effect” value in assay [4] was “little effect on the growth of the parasite”.
Consider `Oc1cc(O)c2c(c1)O[C@H](c1ccc(O)c(O)c1)[C@@H](O)C2` [(+)-catechin], for which, in assay [3], the “Inhibition of ARG-1” value is on record as “did not significantly inhibit” and at 1000 µM the inhibition was 26%. Besides, the “Leishmanicidal activity / effect” value in assay [4] is on record as “little effect on the growth of the parasite”.
Consider `O=C(O)c1cc(O)c(O)c(O)c1` [Gallic acid], for which the IC50 in assay [1] was found to be 2200 ± 200 nM. In addition, in assay [2], the “Ki'” value turned out to be 7.2 ± 1.4 µM, the Mode of inhibition result is on record as “Noncompetitive” and the Ki came out at 7.2 ± 1.4 µM. The Mode of inhibition result in assay [2] (listed as gallic acid) is “noncompetitive inhibitor”. In assay [3], the “Inhibition of ARG-1” value is given as “did not significantly inhibit” and the inhibition at 1000 µM was 20%.
